From patent US20230234942A1, “COMPOUNDS FOR TREATING HUNTINGTON'S DISEASE” (PTC Therapeutics, Inc., priority 2020, published 2023) come the findings set out here.

Each structure is given as a SMILES string.

One assay concerns Endogenous Huntingtin Protein. Put plainly: Endogenous Huntingtin Protein Assay (ELISA-based MSD electrochemiluminescence). Type of assay: cell-based. As to conditions: Table 2; MSD plates coated with MW1 (expanded polyglutamine) or MAB2166 capture antibody; "inactive" = result above the detection limit of the assay. A digest of the protocol:
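MSD electrochemiluminescence sandwich ELISA: capture with MW1 (expanded polyQ) or MAB2166 at 1 µg/mL, samples incubated overnight at 4 °C. Detection by rabbit mAb #56565 then SULFO-TAG anti-rabbit antibody, each 0.25 µg/mL for 1 h at room temperature, read in buffer T on SI 6000 imager.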
As a reminder, the IC50 is the midpoint of a concentration-inhibition curve. The low end stands for higher potency, the high end for lower potency. The molecule `[2H]C([2H])([2H])n1cc(-c2ccc(-c3cnc(N4CCNC(C(C)C)C4)nn3)c(O)c2)cn1` (stereo not shown) [Cpd 41, 5-[1-(^2H3)methyl-1H-pyrazol-4-yl]-2-{3-[3-(propan-2-yl)piperazin-1-yl]-1,2,4-triazin-6-yl}phenol] gave an IC50 of 110 nM.
The molecule `C[C@@H]1CN(c2ncc(-c3ccc(-c4cc(F)c5nn(C)cc5c4)cc3O)nn2)C[C@@H](C)N1` [Cpd 76, 2-{3-[(3R,5R)-3,5-dimethylpiperazin-1-yl]-1,2,4-triazin-6-yl}-5-(7-fluoro-2-methyl-2H-indazol-5-yl)phenol] returned an IC50 of 4.3 nM.
Same read-out and setting: the result for `Cc1cc(-c2ccc(-c3cnc(N4CCNC(C(C)C)C4)nn3)c(O)c2)ccn1` (stereo not shown) [Cpd 44, 5-(2-methylpyridin-4-yl)-2-{3-[3-(propan-2-yl)piperazin-1-yl]-1,2,4-triazin-6-yl}phenol] reads 138 nM.
Same read-out and setting: under `C[C@@H]1CN(c2ncc(-c3ccc(-c4cnc5nn(C)cc5c4)cc3O)nn2)C[C@H](C)N1` [Cpd 97, 2-{3-[(3R,5S)-3,5-dimethylpiperazin-1-yl]-1,2,4-triazin-6-yl}-5-(2-methyl-2H-pyrazolo[3,4-b]pyridin-5-yl)phenol] stands 9.8 nM.
The same measure, in the same setting: under `CC(C)[C@H]1CN(c2ncc(-c3ccc(-c4nc(Cl)cs4)cc3O)nn2)CCN1` [Cpd 188, 5-(4-chloro-1,3-thiazol-2-yl)-2-{3-[(3S)-3-(propan-2-yl)piperazin-1-yl]-1,2,4-triazin-6-yl}phenol] stands 105 nM.
In the case of `Cc1nc2cnc(-c3ccc(-c4cnc(N5C[C@@H](C)N[C@@H](C)C5)nn4)c(O)c3)cn2n1` [Cpd 167, 2-{3-[(3R,5S)-3,5-dimethylpiperazin-1-yl]-1,2,4-triazin-6-yl}-5-(2-methyl[1,2,4]triazolo[1,5-a]pyrazin-6-yl)phenol], half-maximal inhibition (IC50) was put at 14.2 nM.
`Cc1nc2ccc(-c3ccc(-c4cnc(N5C[C@@H](C)N[C@@H](C)C5)nn4)c(O)c3)nn2n1` [Cpd 100, 2-{3-[(3R,5S)-3,5-dimethylpiperazin-1-yl]-1,2,4-triazin-6-yl}-5-(2-methyl[1,2,4]triazolo[1,5-b]pyridazin-6-yl)phenol] came in with an IC50 of 10.9 nM. This IC50 and that of the molecule before are within 1.5-fold of each other.
For `Cn1nnc2ccc(-c3ccc(-c4cnc(N5CCN[C@@H](C6CC6)C5)nn4)c(O)c3)nc21` [Cpd 173, 2-{3-[(3S)-3-cyclopropylpiperazin-1-yl]-1,2,4-triazin-6-yl}-5-(3-methyl-3H-[1,2,3]triazolo[4,5-b]pyridin-5-yl)phenol], the IC50 came to 21.3 nM. This IC50 lies about 2-fold higher than the previous one.
On the same count and under the same terms, the result for `C[C@@H]1CN(c2ncc(-c3ccc(-c4cn[nH]c4F)cc3O)nn2)C[C@H](C2CC2)N1` [Cpd 221, 2-{3-[(3S,5R)-3-cyclopropyl-5-methylpiperazin-1-yl]-1,2,4-triazin-6-yl]-5-(5-fluoro-1H-pyrazol-4-yl)phenol] reads 4.4 nM.
The molecule `CC(C)[C@H]1CN(c2ncc(-c3ccc(-c4cnn5c4CCC5)cc3O)nn2)CCN1` [Cpd 278, 5-(5,6-dihydro-4H-pyrrolo[1,2-b]pyrazol-3-yl)-2-{3-[(3S)-3-(propan-2-yl)piperazin-1-yl]-1,2,4-triazin-6-yl}phenol] had an IC50 of 8.3 nM.
Same read-out and setting: under `Cc1ncn2cc(-c3ccc(-c4cnc(N5CCN[C@@H](C6CC6)C5)nn4)c(O)c3)ccc12` [Cpd 194, 2-{3-[(3S)-3-cyclopropylpiperazin-1-yl]-1,2,4-triazin-6-yl}-5-(1-methylimidazo[1,5-a]pyridin-6-yl)phenol] stands 19.3 nM; under `[2H]C([2H])([2H])n1cc(-c2ccc(-c3cnc(N4C[C@@H](C)N(C)[C@@H](C)C4)nn3)c(O)c2)cn1` [Cpd 51, 5-[1-(^2H3)methyl-1H-pyrazol-4-yl]-2-{3-[(3R,5S)-3,4,5-trimethylpiperazin-1-yl]-1,2,4-triazin-6-yl}phenol], 330 nM; under `CC(C)[C@H]1CN(c2ncc(-c3ccc(-c4nnc(C(F)F)s4)cc3O)nn2)CCN1` [Cpd 205, 5-[5-(difluoromethyl)-1,3,4-thiadiazol-2-yl]-2-{3-[(3S)-3-(propan-2-yl)piperazin-1-yl]-1,2,4-triazin-6-yl}phenol], 904 nM.
On the same count and under the same terms, the result for `CN1CCn2ncc(-c3ccc(-c4cnc(N5CCN[C@@H](C6CC6)C5)nn4)c(O)c3)c21` [Cpd 275, 2-{3-[(3S)-3-cyclopropylpiperazin-1-yl]-1,2,4-triazin-6-yl}-5-(1-methyl-2,3-dihydro-IH-imidazo[1,2-b]pyrazol-7-yl)phenol] reads 755 nM; that for `CC[C@H]1CN(c2ncc(-c3ccc(-c4cn[nH]c4)cc3O)nn2)CCN1` [Cpd 23, 2-{3-[(3S)-3-ethylpiperazin-1-yl]-1,2,4-triazin-6-yl}-5-(1H-pyrazol-4-yl)phenol], 22.7 nM; that for `CCC1CN(c2ncc(-c3ccc(-c4cc(F)c5nc(C)cn5c4)cc3O)nn2)CCN1` (stereo not shown) [Cpd 68, 2-[3-(3-ethylpiperazin-1-yl)-1,2,4-triazin-6-yl]-5-(8-fluoro-2-methylimidazo[1,2-a]pyridin-6-yl)phenol], 2.2 nM.
`C[C@@H]1CN(c2ncc(-c3ccc(-c4ccc5nn(C)nc5n4)cc3O)nn2)C[C@H](C)N1` [Cpd 201, 2-{3-[rac-(3R,5S)-3,5-dimethylpiperazin-1-yl]-1,2,4-triazin-6-yl}-5-(2-methyl-2H-[1,2,3]triazolo[4,5-b]pyridin-5-yl)phenol] returned an IC50 of 11.1 nM.
Regarding `CCCC1CN(c2ncc(-c3ccc(-c4cn[nH]c4)cc3O)nn2)CCN1` (stereo not shown) [Cpd 31, 2-[3-(3-propylpiperazin-1-yl)-1,2,4-triazin-6-yl]-5-(1H-pyrazol-4-yl)phenol], inhibition was half-maximal at 34.3 nM (IC50).
On the same count and under the same terms, the result for `Oc1cc(-n2nccn2)ccc1-c1cnc(N2CCN3CCC[C@H]3C2)nn1` [Cpd 153, 2-{3-[(8aS)-hexahydropyrrolo[1,2-a]pyrazin-2(1H)-yl]-1,2,4-triazin-6-yl}-5-(2H-1,2,3-triazol-2-yl)phenol] reads 438 nM; that for `CN1CCN(c2ncc(-c3ccc(-c4cnc5nn(C)cc5c4)cc3O)nn2)CC1` [Cpd 110, 2-[3-(4-methylpiperazin-1-yl)-1,2,4-triazin-6-yl]-5-(2-methyl-2H-pyrazolo[3,4-b]pyridin-5-yl)phenol], 24.9 nM.
The molecule `CC(C)[C@H]1CN(c2ncc(-c3ccc(-n4ccnc4)cc3O)nn2)CCN1` [Cpd 142, 5-(1H-imidazol-1-yl)-2-{3-[(3S)-3-(propan-2-yl)piperazin-1-yl]-1,2,4-triazin-6-yl}phenol] gave a 50% inhibitory concentration (IC50) of 60.3 nM.
As to `COc1cc(-c2ccc(-c3cnc(N4CCN[C@@H](C5CC5)C4)nn3)c(O)c2)ccn1` [Cpd 251, 2-{3-[(3S)-3-cyclopropylpiperazin-1-yl]-1,2,4-triazin-6-yl]-5-(2-methoxypyridin-4-yl)phenol], the IC50 was 18.6 nM.
On the same count and under the same terms, the result for `CC(C)[C@H]1CN(c2ncc(-c3ccc(-c4cn[nH]c4)cc3O)nn2)C[C@@H](C)N1` [Cpd 229, 2-{3-[(3R,5S)-3-methyl-5-(propan-2-yl)piperazin-1-yl]-1,2,4-triazin-6-yl}-5-(1H-pyrazol-4-yl)phenol] reads 18.2 nM; that for `Cc1cncc(-c2ccc(-c3cnc(N4CCN[C@@H](C(C)C)C4)nn3)c(O)c2)n1` [Cpd 143, 5-(6-methylpyrazin-2-yl)-2-{3-[(3S)-3-(propan-2-yl)piperazin-1-yl]-1,2,4-triazin-6-yl}phenol], 634 nM.
Still for that read-out and setting: the result for `COc1cc(-c2ccc(-c3cnc(N4CCN[C@@H](C(C)C)C4)nn3)c(O)c2)cc(C)n1` [Cpd 271, 5-(2-methoxy-6-methylpyridin-4-yl)-2-{3-[(3S)-3-(propan-2-yl)piperazin-1-yl]-1,2,4-triazin-6-yl}phenol] reads 943 nM; that for `CCC1CN(c2ncc(-c3ccc(-c4cc(F)c5nn(C)cc5c4)cc3O)nn2)CCN1` (stereo not shown) [Cpd 74, 2-[3-(3-ethylpiperazin-1-yl)-1,2,4-triazin-6-yl]-5-(7-fluoro-2-methyl-2H-indazol-5-yl)phenol], 4.3 nM.
For the molecule `CC[C@H]1CN(c2ncc(-c3ccc(-c4ncns4)cc3O)nn2)C[C@@H](C)N1` (single isomer, unassigned) [Cpd 267, 2-{3-[(3S,5R)-3-ethyl-5-methylpiperazin-1-yl]-1,2,4-triazin-6-yl}-5-(1,2,4-thiadiazol-5-yl)phenol or 2-{3-[(3R,5S)-3-ethyl-5-methylpiperazin-1-yl]-1,2,4-triazin-6-yl}-5-(1,2,4-thiadiazol-5-yl)phenol], the IC50 is 145 nM.
As for `Cc1cnc(-c2ccc(-c3cnc(N4CCN[C@@H](C(C)C)C4)nn3)c(O)c2)cn1` [Cpd 145, 5-(5-methylpyrazin-2-yl)-2-{3-[(3S)-3-(propan-2-yl)piperazin-1-yl]-1,2,4-triazin-6-yl}phenol], the concentration for half-maximal inhibition (IC50) came to 480 nM.
Molecule `Cn1nc2cnc(-c3ccc(-c4cnc(N5CCN[C@@H](C6CC6)C5)nn4)c(O)c3)cc2n1` [Cpd 172, 2-{3-[(3S)-3-cyclopropylpiperazin-1-yl]-1,2,4-triazin-6-yl}-5-(2-methyl-2H-[1,2,3]triazolo[4,5-c]pyridin-6-yl)phenol] yielded an IC50 of 4 nM.
Still for that read-out and setting: under `Oc1cc(-c2cn[nH]c2)ccc1-c1cnc(N2CCN[C@H](C3CC3)C2)nn1` [Cpd 136, 2-{3-[(3R)-3-cyclopropylpiperazin-1-yl]-1,2,4-triazin-6-yl}-5-(1H-pyrazol-4-yl)phenol] stands 50.5 nM.

Staying with this assay, now noted: Table 3; selected compounds from WO/2019/191229 A1, same MSD assay.
As for `C[C@@H]1CN(c2ncc(-c3ccc(-c4ccc5nccn5n4)cc3O)nn2)C[C@H](C)N1` [WO/2019/191229 A1 Cpd 385, reference compound], half-maximal inhibition (IC50) was put at 33.1 nM.
